How the values were obtained:
Assay in all cases: relative viability (nuclei count vs DMSO), 5 days (fraction); higher = more cells survive
[1] = compound: Nc1ccn([C@@H]2O[C@H](CO)[C@@H](O)C2(F)F)c(=O)n1 [Gemcitabine] + CC(=O)c1c(C)c2cnc(Nc3ccc(N4CCNCC4)cn3)nc2n(C2CCCC2)c1=O [Palbociclib] (partner 0.5 µM)
How it was run: (§1)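 Lung cancer cell lines in 1536-well plates were dosed by pin tool the day after seeding, either with one drug alone or with a fixed anchor-drug dose plus five library-drug doses (not always all listed) in √10 steps. After 5 days, cells were fixed and their nuclei stained in one step (final 0.05% Triton X-100, 1% formaldehyde, 1 ug/ml Hoechst), then counted on 4× images. Relative viability is the nuclei count in treated wells divided by that in vehicle wells. Values are medians of duplicate plates.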

Gemcitabine + Dasatinib = compound: Nc1ccn([C@@H]2O[C@H](CO)[C@@H](O)C2(F)F)c(=O)n1 [Gemcitabine] + Cc1nc(Nc2ncc(C(=O)Nc3c(C)cccc3Cl)s2)cc(N2CCN(CCO)CC2)n1 [Dasatinib] (partner 0.075 µM)
How it was run: as §1

Gemcitabine + Luminespib = compound: Nc1ccn([C@@H]2O[C@H](CO)[C@@H](O)C2(F)F)c(=O)n1 [Gemcitabine] + CCNC(=O)c1noc(-c2cc(C(C)C)c(O)cc2O)c1-c1ccc(CN2CCOCC2)cc1 [Luminespib] (partner 0.01 µM)
How it was run: as §1

Gemcitabine + Bortezomib = compound: Nc1ccn([C@@H]2O[C@H](CO)[C@@H](O)C2(F)F)c(=O)n1 [Gemcitabine] + CC(C)C[C@H](NC(=O)[C@H](Cc1ccccc1)NC(=O)c1cnccn1)B(O)O [Bortezomib] (partner 0.002 µM)
How it was run: as §1

| Cell Line | relative viability ([1]; first compound 0.001 µM) | relative viability ([1]; first compound 0.003162 µM) | relative viability ([1]; first compound 0.01 µM) | relative viability ([1]; first compound 0.03162 µM) | relative viability ([1]; first compound 0.1 µM) | relative viability (Gemcitabine + Dasatinib; first compound 0.001 µM) | relative viability (Gemcitabine + Dasatinib; first compound 0.003162 µM) | relative viability (Gemcitabine + Dasatinib; first compound 0.01 µM) | relative viability (Gemcitabine + Dasatinib; first compound 0.03162 µM) | relative viability (Gemcitabine + Dasatinib; first compound 0.1 µM) | relative viability (Gemcitabine + Luminespib; first compound 0.001 µM) | relative viability (Gemcitabine + Luminespib; first compound 0.003162 µM) | relative viability (Gemcitabine + Luminespib; first compound 0.01 µM) | relative viability (Gemcitabine + Luminespib; first compound 0.03162 µM) | relative viability (Gemcitabine + Luminespib; first compound 0.1 µM) | relative viability (Gemcitabine + Bortezomib; first compound 0.001 µM) | relative viability (Gemcitabine + Bortezomib; first compound 0.003162 µM) | relative viability (Gemcitabine + Bortezomib; first compound 0.01 µM) | relative viability (Gemcitabine + Bortezomib; first compound 0.03162 µM) | relative viability (Gemcitabine + Bortezomib; first compound 0.1 µM) |
| --- | --- | --- | --- | --- | --- | --- | --- | --- | --- | --- | --- | --- | --- | --- | --- | --- | --- | --- | --- | --- |
| COR-L 105 | 0.398 | 0.4 | 0.366 | 0.347 | 0.326 | 0.295 | 0.318 | 0.274 | 0.198 | 0.154 | 0.886 | 0.793 | 0.571 | 0.275 | 0.188 | 0.867 | 0.851 | 0.479 | 0.23 | 0.201 |
| LK-2 | 0.798 | 0.696 | 0.403 | 0.119 | 0.126 | 0.299 | 0.356 | 0.174 | 0.201 | 0.158 | 0.186 | 0.245 | 0.173 | 0.178 | 0.164 |  |  |  |  |  |
| NCI-H727 | 0.674 | 0.592 | 0.574 | 0.597 | 0.503 | 0.303 | 0.33 | 0.295 | 0.264 | 0.345 | 0.312 | 0.288 | 0.352 | 0.207 | 0.342 | 0.841 | 0.405 | 0.241 | 0.258 | 0.287 |
| RERF-LC-KJ | 1.06 | 1.02 | 0.991 | 0.356 | 0.255 | 0.837 | 0.879 | 0.768 | 0.291 | 0.19 | 1.17 | 1.45 | 1.13 | 0.458 | 0.319 | 1.12 | 1.25 | 0.92 | 0.559 | 0.294 |
| NCI-H2023 | 0.354 | 0.39 | 0.218 | 0.138 | 0.0722 | 0.529 | 0.533 | 0.207 | 0.0853 | 0.0604 | 0.96 | 0.755 | 0.623 | 0.141 | 0.0596 | 1.12 | 1.11 | 0.241 | 0.104 | 0.0584 |
| NCI-H322M | 0.463 | 0.396 | 0.336 | 0.452 | 0.425 | 0.295 | 0.241 | 0.28 | 0.274 | 0.252 | 0.73 | 0.445 | 0.334 | 0.36 | 0.344 | 1.35 | 0.439 | 0.334 | 0.291 | 0.234 |
| NCI-H1666 | 0.603 | 0.664 | 0.651 | 0.596 | 0.578 | 0.797 | 0.796 | 0.715 | 0.52 | 0.375 | 1.01 | 0.937 | 0.957 | 0.595 | 0.393 | 0.739 | 0.979 | 0.567 | 0.24 | 0.225 |
| SW 900 | 0.551 | 0.562 | 0.286 | 0.176 | 0.186 | 0.526 | 0.138 | 0.0977 | 0.0689 | 0.0628 | 0.147 | 0.187 | 0.164 | 0.161 | 0.148 |  |  |  |  |  |
| NCI-H2087 | 0.266 | 0.197 | 0.193 | 0.165 | 0.136 | 0.746 | 0.499 | 0.169 | 0.0893 | 0.0871 | 0.178 | 0.159 | 0.14 | 0.147 | 0.138 | 0.743 | 0.569 | 0.581 | 0.155 | 0.166 |
| LU99A | 0.412 | 0.43 | 0.409 | 0.404 | 0.421 | 0.555 | 0.56 | 0.558 | 0.516 | 0.507 | 0.238 | 0.306 | 0.233 | 0.232 | 0.266 | 1.14 | 1.18 | 1 | 1.25 | 1.18 |
| HCC-366 | 0.402 | 0.383 | 0.205 | 0.0402 | 0.026 | 0.633 | 0.637 | 0.155 | 0.0301 | 0.0176 |  |  |  |  |  | 1.05 | 1.01 | 0.425 | 0.0213 | 0.0123 |
| EKVX | 0.412 | 0.284 | 0.237 | 0.168 | 0.154 | 0.471 | 0.658 | 0.546 | 0.232 | 0.172 | 1.06 | 0.727 | 0.456 | 0.182 | 0.115 | 0.995 | 1.07 | 0.461 | 0.18 | 0.142 |
| NCI-H2342 | 0.484 | 0.527 | 0.46 | 0.433 | 0.393 | 0.312 | 0.277 | 0.282 | 0.233 | 0.293 | 0.591 | 0.61 | 0.543 | 0.376 | 0.331 |  |  |  |  |  |
| NCI-H1755 | 0.431 | 0.425 | 0.401 | 0.414 | 0.421 | 0.454 | 0.457 | 0.392 | 0.243 | 0.207 | 0.451 | 0.505 | 0.491 | 0.346 | 0.26 | 0.952 | 0.958 | 0.84 | 0.343 | 0.312 |
| NCI-H647 | 0.388 | 0.287 | 0.0692 | 0.0695 | 0.044 | 0.1 | 0.0588 | 0.0298 | 0.0257 | 0.0223 | 0.166 | 0.118 | 0.0907 | 0.0871 | 0.0761 | 0.783 | 0.224 | 0.0897 | 0.0721 | 0.0698 |
| LC-2-ad | 0.509 | 0.555 | 0.424 | 0.496 | 0.317 | 0.567 | 0.226 | 0.193 | 0.167 | 0.138 | 1.15 | 0.885 | 0.832 | 0.258 | 0.219 | 0.998 | 0.992 | 0.476 | 0.11 | 0.0847 |
| NCI-H1793 | 0.297 | 0.3 | 0.267 | 0.167 | 0.145 | 0.368 | 0.388 | 0.186 | 0.12 | 0.12 | 0.17 | 0.179 | 0.15 | 0.125 | 0.137 |  |  |  |  |  |

From the supplement of paper PMC10307832
